Patent US20240417405A1, “Substituted Spiro Derivatives” (Janssen Pharmaceutica NV, priority 2021, published 2024)
Where two headings read alike, the source gives them in different places.

What was measured:
[1] = molecular target: T1, menin/MLL (terbium chelate-labeled menin, FITC-MBM1 peptide) (Homo sapiens, UniProt O00255, T541A); test: Menin/MLL homogenous time-resolved fluorescence (HTRF) assay; assay type: binding; conditions: 30 min incubation
T1 construct: Menin (a.a 1-610-6xhis tag)
T1 sequence (O00255 with tags, fused parts or gaps T541A): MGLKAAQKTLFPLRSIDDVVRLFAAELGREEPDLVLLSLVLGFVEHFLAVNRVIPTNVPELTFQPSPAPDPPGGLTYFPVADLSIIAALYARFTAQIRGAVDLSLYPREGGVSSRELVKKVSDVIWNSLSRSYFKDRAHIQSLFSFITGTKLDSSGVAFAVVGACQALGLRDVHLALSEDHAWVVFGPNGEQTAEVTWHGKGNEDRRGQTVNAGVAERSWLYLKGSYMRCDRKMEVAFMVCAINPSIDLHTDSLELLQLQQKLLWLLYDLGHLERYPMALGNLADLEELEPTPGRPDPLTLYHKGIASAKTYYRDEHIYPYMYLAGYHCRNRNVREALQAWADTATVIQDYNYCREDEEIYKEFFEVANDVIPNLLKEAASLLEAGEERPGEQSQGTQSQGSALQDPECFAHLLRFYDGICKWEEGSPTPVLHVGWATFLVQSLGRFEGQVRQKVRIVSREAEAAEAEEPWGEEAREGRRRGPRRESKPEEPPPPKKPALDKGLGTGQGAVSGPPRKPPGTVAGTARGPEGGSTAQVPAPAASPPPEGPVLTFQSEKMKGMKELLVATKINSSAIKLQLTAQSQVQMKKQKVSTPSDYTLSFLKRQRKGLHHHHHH
Outline: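 Read-out: TR-FRET ratio (FITC 520 nm / terbium 490 nm, ex. 337 nm) after 15 min with 75 nM FITC-MBM1 peptide. Test compound first sat 30 min with 200 pM Tb-menin 1-610-His, 0.5% DMSO, pH 7.5 Tris buffer. IC50 by Hill fit; values under 0.1 nM reported as 0.1 nM.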

KO-52 cells = test: Proliferation assay, spheroid-like growth, KO-52 (MLL wildtype control cell line); assay type: cell-based, human; conditions: KO-52 control cells, 8 days, confluence as measure of spheroid size, read-out: spheroid assay_OneTime KO-52 IC50
Outline: (§1)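 MOLM14 (MLL-AF9) or KO-52 (MLL wildtype) cells were grown in ultra-low attachment round-bottom wells with compound (0.3% DMSO) for 8 days at 37 °C. Spheroid confluence was imaged live on day 8, normalized to DMSO and a high-dose reference/staurosporin control, and absolute IC50 fitted with variable slope.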

MOLM14 cells = test: Proliferation assay, spheroid-like growth, MOLM14 (MLL-AF9 rearranged); assay type: cell-based, human; conditions: 8 days, confluence as measure of spheroid size, read-out: spheroid assay_OneTime MOLM14 IC50
Outline: as §1

Row | IC50 [1] [nM] | IC50 (MOLM14 cells; Homo sapiens, MOLM-14, 192 h) [nM] | IC50 (MOLM14 cells) [nM] | Compound | IC50 (KO-52 cells; Homo sapiens, 192 h) [nM] | IC50 (KO-52 cells) [nM]
1 | 2.3 | 700 |  | CC(C)[C@@H]([C@H]1C[C@H](N2CCC2)C1)N1CC2(CCN(c3ncnnc3Oc3ccc(F)cc3-c3cncnc3C3CC3)C2)C1 (single isomer, unassigned) [Compound 346] | > 15000 | 
2 | 0.1 | 85 |  | CC(C)[C@H]([C@H]1C[C@@H](N2CCC(S(C)(=O)=O)CC2)C1)N1CC2(CCN(c3ncnnc3Oc3ccc(F)cc3-c3ncccc3C3CC3)C2)C1 (single isomer, unassigned) [Compound 25] | 5570 | 
3 | 0.1 | 6 |  | CC(C)[C@H]([C@H]1C[C@@H](NC(=O)C2CC2)C1)N1CC2(CCN(c3ncnnc3Oc3ccc(F)cc3-c3cnncc3C3CC3)C2)C1 (single isomer, unassigned) [Compound 185] | 6040 | 
4 | 0.1 | 110 |  | CC(=O)N1CCCC12CN([C@H]1C[C@H]([C@@H](C(C)C)N3CC4(CCN(c5ncnnc5Oc5ccc(F)cc5-c5cncnc5C5CC5)C4)C3)C1)C2 (single isomer, unassigned) [Compound 175] | > 15000 | 
5 | 0.1 | 52 |  | CC(C)C([C@H]1C[C@H](N2CC3(COC3)C2)C1)N1CC2(CCN(c3ncnnc3Oc3ccc(F)cc3-c3cncnc3C3CC3)C2)C1 (single isomer, unassigned) [Compound 21] | 4610 | 
6 | 0.4 | 230 |  | CC(C)[C@H](C1CC2(C1)CN(CC1COC1)C2)N1CC2(CCN(c3ncnnc3Oc3ccc(F)cc3-c3cncnc3C3CC3)C2)C1 (single isomer, unassigned) [Compound 154] | 9080 | 
7 | 0.1 | 16 |  | CC(C)[C@H]([C@H]1C[C@@H](N2CCC[C@H](F)C2)C1)N1CC2(CCN(c3ncnnc3Oc3ccc(F)cc3-c3cncnc3C3CC3)C2)C1 (single isomer, unassigned) [Compound 200] | 9710 | 
8 | 0.4 |  | 200 | CC(C)C([C@H]1C[C@@H](N)C1)N1CC2(CCN(c3ncnnc3Oc3ccc(F)cc3-c3cncnc3C3CC3)C2)C1 (single isomer, unassigned) [Compound 1b] |  | > 15000
9 | 117 | > 940 |  | CC(C)[C@@H]([C@H]1C[C@]2(COC(=O)N2)C1)N1CC2(CCN(c3ncnnc3Oc3ccc(F)cc3-c3nnccc3C3CC3)C2)C1 (single isomer, unassigned) [Compound 324] | > 15000 | 
10 | 0.3 | 66 |  | CC(C)[C@H](C1CCN(CC2(O)CC2)CC1)N1CC2(CCN(c3ncnnc3Oc3ccc(F)cc3-c3cncnc3C3CC3)C2)C1 (single isomer, unassigned) [Compound 4] | 7730 | 
11 | 0.6 | 53 |  | CC(C)[C@@H]([C@H]1C[C@@H](N2C[C@H]3COC[C@H]3C2)C1)N1CC2(CCN(c3ncnnc3Oc3ccc(F)cc3-c3cnc(C#N)nc3C3CC3)C2)C1 [Compound 168] | 2590 | 
12 | 0.1 | 110 |  | CC(C)[C@H]([C@H]1C[C@H](N2CCC(C)(C(=O)N(C)C)C2)C1)N1CC2(CCN(c3ncnnc3Oc3ccc(F)cc3-c3cncnc3C3CC3)C2)C1 (stereo partly drawn) [Compound 162] | 6400 | 
13 | 0.3 | 83 |  | CC(C)[C@@H]([C@H]1C[C@H](N(C)C)C1)N1CC2(CCN(c3ncnnc3Oc3ccc(F)cc3-c3nnccc3C3CC3)C2)C1 (single isomer, unassigned) [Compound 261b] | 3070 | 
14 | 0.1 | 26 |  | CC(C)[C@@H]([C@H]1C[C@H](N(C)C)C1)N1CC2(CCN(c3ncnnc3Oc3ccc(F)cc3-c3cccnc3C3CC3)C2)C1 (single isomer, unassigned) [Compound 91] | 1030 | 
15 | 23.7 | > 940 |  | CC(C)[C@H]([C@H]1C[C@]2(COC(=O)N2)C1)N1CC2(CCN(c3ncnnc3Oc3ccc(F)cc3-c3cncnc3C3CC3)C2)C1 (single isomer, unassigned) [Compound 319] | > 15000 | 
